Columns and labels:
Assay in all cases: relative viability (nuclei count vs DMSO), 5 days (fraction); higher = more cells survive
NCI-H460 = tested on: NCI-H460
How it was run: (§1)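 Lung cancer cell lines, seeded in 1536-well plates, were treated the following day by pin tool with a single drug or with five library-drug doses (not always all listed) in √10 steps on top of a fixed anchor-drug dose. Cells were fixed and nuclei stained in one step after 5 days, and nuclei were counted. Relative viability is the nuclei count for treated wells divided by that for vehicle wells, reported as medians of duplicate plates.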

NCI-H1734 = tested on: NCI-H1734
How it was run: as §1

NCI-H3122 = tested on: NCI-H3122
How it was run: as §1

NCI-H838 = tested on: NCI-H838
How it was run: as §1

NCI-H2347 = tested on: NCI-H2347
How it was run: as §1

NCI-H650 = tested on: NCI-H650
How it was run: as §1

NCI-H520 = tested on: NCI-H520
How it was run: as §1

NCI-H1944 = tested on: NCI-H1944
How it was run: as §1

NCI-H596 = tested on: NCI-H596
How it was run: as §1

EKVX = tested on: EKVX
How it was run: as §1

NCI-H441 = tested on: NCI-H441
How it was run: as §1

H3255 = tested on: H3255
How it was run: as §1

SW 1573 = tested on: SW 1573
How it was run: as §1

LK-2 = tested on: LK-2
How it was run: as §1

NCI-H1755 = tested on: NCI-H1755
How it was run: as §1

NCI-H2085 = tested on: NCI-H2085
How it was run: as §1

NCI-H358 = tested on: NCI-H358
How it was run: as §1

NCI-H1355 = tested on: NCI-H1355
How it was run: as §1

NCI-H2228 = tested on: NCI-H2228
How it was run: as §1

A-427 = tested on: A-427
How it was run: as §1

NCI-H1666 = tested on: NCI-H1666
How it was run: as §1

NCI-H322M = tested on: NCI-H322M
How it was run: as §1

SMILES: CCCCCCCCCCCC1=C(O)C(=O)C=C(O)C1=O [Embelin] + Cc1nc(NC(=O)N2CCC[C@H]2C(N)=O)sc1-c1ccnc(C(C)(C)C(F)(F)F)c1 [Alpelisib] (partner 2 µM)
- relative viability (NCI-H460; first compound 0.08 µM): 0.448
- relative viability (NCI-H460; first compound 0.8 µM): 0.574
- relative viability (NCI-H460; first compound 2.53 µM): 0.698
- relative viability (NCI-H460; first compound 8 µM): 0.517
- relative viability (NCI-H1734; first compound 0.08 µM): 0.758
- relative viability (NCI-H1734; first compound 0.8 µM): 0.726
- relative viability (NCI-H1734; first compound 2.53 µM): 0.745
- relative viability (NCI-H1734; first compound 8 µM): 0.741
- relative viability (NCI-H3122; first compound 0.08 µM): 0.746
- relative viability (NCI-H3122; first compound 0.8 µM): 0.697
- relative viability (NCI-H3122; first compound 2.53 µM): 0.728
- relative viability (NCI-H3122; first compound 8 µM): 0.737
- relative viability (NCI-H838; first compound 0.08 µM): 1.01
- relative viability (NCI-H838; first compound 0.8 µM): 1
- relative viability (NCI-H838; first compound 2.53 µM): 1.12
- relative viability (NCI-H838; first compound 8 µM): 1.11
- relative viability (NCI-H2347; first compound 0.08 µM): 1.05
- relative viability (NCI-H2347; first compound 0.8 µM): 1.16
- relative viability (NCI-H2347; first compound 2.53 µM): 1.11
- relative viability (NCI-H2347; first compound 8 µM): 1.16
- relative viability (NCI-H650; first compound 0.08 µM): 1.14
- relative viability (NCI-H650; first compound 0.8 µM): 1.26
- relative viability (NCI-H650; first compound 2.53 µM): 1.02
- relative viability (NCI-H650; first compound 8 µM): 1.06
- relative viability (NCI-H520; first compound 0.08 µM): 1.05
- relative viability (NCI-H520; first compound 0.8 µM): 1.06
- relative viability (NCI-H520; first compound 2.53 µM): 0.896
- relative viability (NCI-H520; first compound 8 µM): 0.901
- relative viability (NCI-H1944; first compound 0.08 µM): 0.818
- relative viability (NCI-H1944; first compound 0.8 µM): 0.925
- relative viability (NCI-H1944; first compound 2.53 µM): 0.875
- relative viability (NCI-H1944; first compound 8 µM): 0.828
- relative viability (NCI-H596; first compound 0.08 µM): 0.487
- relative viability (NCI-H596; first compound 0.8 µM): 0.522
- relative viability (NCI-H596; first compound 2.53 µM): 0.482
- relative viability (NCI-H596; first compound 8 µM): 0.581
- relative viability (EKVX; first compound 0.08 µM): 0.849
- relative viability (EKVX; first compound 0.8 µM): 0.914
- relative viability (EKVX; first compound 2.53 µM): 0.999
- relative viability (EKVX; first compound 8 µM): 0.823
- relative viability (NCI-H441; first compound 0.08 µM): 0.85
- relative viability (NCI-H441; first compound 2.53 µM): 0.933
- relative viability (NCI-H441; first compound 8 µM): 0.847
- relative viability (H3255; first compound 0.08 µM): 0.935
- relative viability (H3255; first compound 0.8 µM): 0.804
- relative viability (H3255; first compound 2.53 µM): 0.766
- relative viability (H3255; first compound 8 µM): 0.653
- relative viability (SW 1573; first compound 0.08 µM): 0.815
- relative viability (SW 1573; first compound 0.8 µM): 0.966
- relative viability (SW 1573; first compound 2.53 µM): 0.786
- relative viability (SW 1573; first compound 8 µM): 0.804
- relative viability (LK-2; first compound 0.08 µM): 1.09
- relative viability (LK-2; first compound 0.8 µM): 1.5
- relative viability (LK-2; first compound 2.53 µM): 1.09
- relative viability (LK-2; first compound 8 µM): 0.99
- relative viability (NCI-H1755; first compound 0.08 µM): 0.906
- relative viability (NCI-H1755; first compound 0.8 µM): 0.966
- relative viability (NCI-H1755; first compound 2.53 µM): 0.994
- relative viability (NCI-H1755; first compound 8 µM): 0.934
- relative viability (NCI-H2085; first compound 0.08 µM): 0.944
- relative viability (NCI-H2085; first compound 0.8 µM): 0.999
- relative viability (NCI-H2085; first compound 2.53 µM): 1.11
- relative viability (NCI-H2085; first compound 8 µM): 0.999
- relative viability (NCI-H358; first compound 0.08 µM): 0.852
- relative viability (NCI-H358; first compound 0.8 µM): 0.958
- relative viability (NCI-H358; first compound 2.53 µM): 1.09
- relative viability (NCI-H358; first compound 8 µM): 0.918
- relative viability (NCI-H1355; first compound 0.08 µM): 0.847
- relative viability (NCI-H1355; first compound 0.8 µM): 0.897
- relative viability (NCI-H1355; first compound 2.53 µM): 0.916
- relative viability (NCI-H1355; first compound 8 µM): 0.771
- relative viability (NCI-H2228; first compound 0.08 µM): 0.705
- relative viability (NCI-H2228; first compound 0.8 µM): 0.781
- relative viability (NCI-H2228; first compound 2.53 µM): 0.793
- relative viability (NCI-H2228; first compound 8 µM): 0.729
- relative viability (A-427; first compound 0.08 µM): 1.1
- relative viability (A-427; first compound 0.8 µM): 1.13
- relative viability (A-427; first compound 2.53 µM): 1.12
- relative viability (A-427; first compound 8 µM): 1.07
- relative viability (NCI-H1666; first compound 0.08 µM): 1.01
- relative viability (NCI-H1666; first compound 0.8 µM): 1.09
- relative viability (NCI-H1666; first compound 2.53 µM): 1.05
- relative viability (NCI-H1666; first compound 8 µM): 0.955
- relative viability (NCI-H322M; first compound 0.08 µM): 0.833
- relative viability (NCI-H322M; first compound 0.8 µM): 0.801
- relative viability (NCI-H322M; first compound 2.53 µM): 0.856
- relative viability (NCI-H322M; first compound 8 µM): 0.648

Source: the supplement of paper PMC10307832
